According to US11254671B2, “Chemical compounds” (GLAXOSMITHKLINE INTELLECTUAL PROPERTY DEVELOPMENT LIMITED, priority 2017, dated 2022):

What follows are molecules tested on phosphorylated Akt at serine 473 (pAKTs473) in primary human lung fibroblasts (assay: Highthroughput phosphorylated Akt (Ser473) in vitro immunoassay (MSD)). Details: Fibroblast, 1 h compound, PDGF-BB 10 ng/ml for 10 min, mean of multiple experiments, read-out: mean pIC50, inhibition of pAkt (Ser473) (converted).
Format: cell-based
Outline: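 Primary human lung fibroblasts in 0.4% FBS were preincubated with compound for 1 h at 37 °C (11-point curve, 0.1% DMSO final), then stimulated with 10 ng/ml PDGF-BB for 10 min. pAkt Ser473 in lysates was measured by MSD electrochemiluminescence; IC50 was derived by non-linear regression between stimulated and unstimulated controls.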
With `CC[C@H]1COCCN1c1cc(CS(=O)(=O)C2CC2)cc(-c2ccc3[nH]c(CNC)cc3n2)n1` [Example 10, (S)-1-(5-(4-((cyclopropylsulfonyl)methyl)-6-(3-ethylmorpholino)pyridin-2-yl)-1H-pyrrolo[3,2-b]pyridin-2-yl)-N-methylmethanamine] the IC50 was 2.51 to 10 nM. `CC[C@H]1COCCN1c1cc(C2(S(C)(=O)=O)CCOCC2)cc(-c2ccc3[nH]c(CN)cc3n2)n1` [Example 23, 1-(5-{6-[(3S)-3-ethylmorpholin-4-yl]-4-(4-methanesulfonyloxan-4-yl)pyridin-2-yl}-1H-pyrrolo[3,2-b]pyridin-2-yl)methanamine] was tested, and the IC50 was 2.51 to 10 nM. `CC[C@H]1COCCN1c1cc(C(C)(C)S(C)(=O)=O)cc(-c2ccc3[nH]c(CO)cc3n2)n1` [Example 32] was tested, and the IC50 was 3.16 to 316 nM.
